The source of these data is PubChem BioAssay (NCI).

Test systems include SW-620 colon; SK-MEL-5 melanoma; LOX IMVI melanoma; MOLT-4 leukemia; UACC-257 melanoma; SF-539 CNS; OVCAR-5 ovarian; SK-MEL-28 melanoma; U251 CNS; RPMI-8226 leukemia; A549 NSCLC; NCI/ADR-RES ovarian; HCT-15 colon.
Assay in all cases: NCI anticancer screen, dose series, 48 h

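The compound was tested at five concentrations on cells cultured in 96-well plates, with a 48-hour exposure period. The concentration for 50% growth inhibition is given as GI50. TGI is the concentration that stops growth completely.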

Regarding `CN(C)Cc1cc(N=Nc2ccccc2)cc(CN(C)C)c1O`, the TGI in the assay on SW-620 colon, in the assay with SK-MEL-5 melanoma, with LOX IMVI melanoma, with MOLT-4 leukemia, in the assay with UACC-257 melanoma and with SF-539 CNS was more than 100 µM in each case. Moreover, the TGI with OVCAR-5 ovarian, in the assay on SK-MEL-28 melanoma, in the assay with U251 CNS, in the assay on RPMI-8226 leukemia, with A549 NSCLC and in the assay with NCI/ADR-RES ovarian was more than 100 µM throughout. This compound also showed a TGI in the assay with HCT-15 colon of more than 100 µM.
Turning to `CNC(=O)c1[nH]cnc1/N=N/N(C)N`, the TGI in the assay on SW-620 colon, in the assay with SK-MEL-5 melanoma, in the assay with LOX IMVI melanoma, with MOLT-4 leukemia, in the assay on UACC-257 melanoma and in the assay on SF-539 CNS was more than 100 µM in each case. Besides, the TGI with OVCAR-5 ovarian, with SK-MEL-28 melanoma, with U251 CNS, in the assay on RPMI-8226 leukemia, with A549 NSCLC and in the assay on NCI/ADR-RES ovarian was more than 100 µM in each case. For the same compound, the TGI with HCT-15 colon was more than 100 µM.
For the compound `Cn1c2ccccc2c(=NNc2ccc(C(=O)O)cc2)c2ccccc21`, the TGI with SW-620 colon was 65.3 µM; with SK-MEL-5 melanoma, 32.7 µM; in the assay with LOX IMVI melanoma it was 24.1 µM; in the assay on MOLT-4 leukemia it was 57.4 µM; with UACC-257 melanoma it was 57 µM; in the assay on SF-539 CNS, 49.9 µM. Further, the TGI was 48 µM with OVCAR-5 ovarian; 60.7 µM in the assay on SK-MEL-28 melanoma; 41 µM in the assay on U251 CNS; 53.1 µM with RPMI-8226 leukemia; 38.7 µM in the assay with A549 NSCLC; 57.9 µM in the assay with NCI/ADR-RES ovarian. The TGI with HCT-15 colon stood at 38.9 µM.
Turning to `CC(=O)OCC1=C(C)C(OC(=O)C(OC(C)=O)[C@@H](NC(=O)c2ccccc2)c2ccccc2)CCC1(C)C` (stereo partly specified), the TGI in the assay with SW-620 colon, with SK-MEL-5 melanoma, in the assay on LOX IMVI melanoma, with MOLT-4 leukemia, in the assay on UACC-257 melanoma and in the assay on SF-539 CNS was more than 100 µM in each case. Further, the TGI with OVCAR-5 ovarian, with SK-MEL-28 melanoma, in the assay on U251 CNS, in the assay with RPMI-8226 leukemia, in the assay on A549 NSCLC and with NCI/ADR-RES ovarian was more than 100 µM each time. Also, the TGI with HCT-15 colon was more than 100 µM.
Take `CC[n+]1c(/C=C/c2ccc(N(CCCl)CCCl)cc2)ccc2cc(NC(=O)/C=C/c3ccccc3)ccc21`: the TGI in the assay with SW-620 colon was found to be 0.67 µM; in the assay with SK-MEL-5 melanoma, 0.632 µM; in the assay on LOX IMVI melanoma, 1.51 µM; in the assay on MOLT-4 leukemia it was 1.69 µM; in the assay on UACC-257 melanoma it was 1.13 µM; in the assay on SF-539 CNS, 2.03 µM. The TGI was 6.03 µM in the assay on OVCAR-5 ovarian; 2.03 µM with SK-MEL-28 melanoma; 0.619 µM with U251 CNS; 0.696 µM with RPMI-8226 leukemia; 6.09 µM in the assay with A549 NSCLC; more than 100 µM in the assay with NCI/ADR-RES ovarian. In the assay with HCT-15 colon, this compound returned a TGI of more than 94.7 µM.
`CSc1ccc(/C=C2\N=C(c3ccccc3)N(c3nc4ccc(Sc5ccccc5)cc4[nH]3)C2=O)cc1`: the TGI was determined as 52.5 µM in the assay with SW-620 colon; 27.3 µM in the assay on SK-MEL-5 melanoma; 41.6 µM in the assay with LOX IMVI melanoma; 80.9 µM in the assay with MOLT-4 leukemia; 55.6 µM in the assay on UACC-257 melanoma; 32.5 µM in the assay with SF-539 CNS. Moreover, the TGI with OVCAR-5 ovarian was 83.7 µM; with SK-MEL-28 melanoma, 51.8 µM; in the assay on U251 CNS, 41.3 µM; in the assay on RPMI-8226 leukemia, 57.2 µM; with A549 NSCLC it was more than 97.2 µM; in the assay on NCI/ADR-RES ovarian it was 72.3 µM. For the same compound, the TGI in the assay on HCT-15 colon is more than 86.2 µM. Further, the GI50 with SF-539 CNS was 15 µM.
On to `COc1cc2c(cc1OC)CC(N=[N+]=[N-])c1cc(OC)c(OC)cc1/C=C\2` (stereo unspecified), for which the TGI is more than 100 µM in the assay with SW-620 colon; 63.1 µM with SK-MEL-5 melanoma; more than 100 µM in the assay on LOX IMVI melanoma; more than 100 µM with MOLT-4 leukemia; more than 100 µM with UACC-257 melanoma; more than 100 µM in the assay on SF-539 CNS. For the same compound, the TGI with OVCAR-5 ovarian, with SK-MEL-28 melanoma, in the assay on U251 CNS, with RPMI-8226 leukemia, in the assay with A549 NSCLC and with NCI/ADR-RES ovarian was more than 100 µM throughout. Further, in the assay with HCT-15 colon, the TGI is more than 100 µM.
Regarding `N#CC1(C#N)NC(c2ccsc2)C(C#N)(C#N)NC1c1ccsc1` (stereo unspecified), the TGI in the assay on SW-620 colon, with SK-MEL-5 melanoma, in the assay with LOX IMVI melanoma, in the assay with MOLT-4 leukemia, with UACC-257 melanoma and in the assay with SF-539 CNS was more than 100 µM each time. Moreover, the TGI in the assay with OVCAR-5 ovarian, in the assay on SK-MEL-28 melanoma, with U251 CNS, in the assay with RPMI-8226 leukemia, with A549 NSCLC and with NCI/ADR-RES ovarian was more than 100 µM in each case. In the assay on HCT-15 colon, this compound gave a TGI of more than 100 µM.
As to `O[C@@H]1C[C@@H]2N[C@@](O)(C[C@@H]2O)[C@H]1O`, the TGI in the assay with SW-620 colon, with SK-MEL-5 melanoma, in the assay with LOX IMVI melanoma, in the assay on MOLT-4 leukemia, in the assay on UACC-257 melanoma and in the assay on SF-539 CNS was more than 100 µM throughout. For the same compound, the TGI in the assay on OVCAR-5 ovarian, with SK-MEL-28 melanoma, in the assay on U251 CNS, with RPMI-8226 leukemia, with A549 NSCLC and in the assay with NCI/ADR-RES ovarian was more than 100 µM throughout. Moreover, the TGI in the assay on HCT-15 colon was more than 100 µM.
Regarding `c1cc2c(c(-c3c4ccccc4nc4ccccc34)c1)CC1(CC2)OCCO1`, the TGI with SW-620 colon, in the assay on SK-MEL-5 melanoma, in the assay with LOX IMVI melanoma, in the assay on MOLT-4 leukemia, with UACC-257 melanoma and with SF-539 CNS was more than 100 µM throughout. For the same compound, the TGI in the assay on OVCAR-5 ovarian, in the assay with SK-MEL-28 melanoma, in the assay on U251 CNS, in the assay on RPMI-8226 leukemia, with A549 NSCLC and in the assay with NCI/ADR-RES ovarian was more than 100 µM each time. The compound also displayed a TGI in the assay with HCT-15 colon of more than 100 µM.
